Biological target: T1, ΔF508-CFTR (Homo sapiens, UniProt P13569, DEL508-508)
T1 construct: expressed in transfected cells
Assay: Membrane potential optical (FRET/VIPR) assay, identification of potentiator compounds
Assay type: cell-based
Conditions: Table 3, assay not given; for % Activity: relative efficacy
How it was run: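 NIH3T3 mouse fibroblasts stably expressing ΔF508-CFTR, temperature-corrected 24 h at 27° C., read on VIPR by FRET between CC2-DMPE and DiSBAC2(3). Potentiators identified in a double-addition format, first adding chloride-free (gluconate) medium with or without compound.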

T1 sequence (P13569 with tags, fused parts or gaps DEL508-508): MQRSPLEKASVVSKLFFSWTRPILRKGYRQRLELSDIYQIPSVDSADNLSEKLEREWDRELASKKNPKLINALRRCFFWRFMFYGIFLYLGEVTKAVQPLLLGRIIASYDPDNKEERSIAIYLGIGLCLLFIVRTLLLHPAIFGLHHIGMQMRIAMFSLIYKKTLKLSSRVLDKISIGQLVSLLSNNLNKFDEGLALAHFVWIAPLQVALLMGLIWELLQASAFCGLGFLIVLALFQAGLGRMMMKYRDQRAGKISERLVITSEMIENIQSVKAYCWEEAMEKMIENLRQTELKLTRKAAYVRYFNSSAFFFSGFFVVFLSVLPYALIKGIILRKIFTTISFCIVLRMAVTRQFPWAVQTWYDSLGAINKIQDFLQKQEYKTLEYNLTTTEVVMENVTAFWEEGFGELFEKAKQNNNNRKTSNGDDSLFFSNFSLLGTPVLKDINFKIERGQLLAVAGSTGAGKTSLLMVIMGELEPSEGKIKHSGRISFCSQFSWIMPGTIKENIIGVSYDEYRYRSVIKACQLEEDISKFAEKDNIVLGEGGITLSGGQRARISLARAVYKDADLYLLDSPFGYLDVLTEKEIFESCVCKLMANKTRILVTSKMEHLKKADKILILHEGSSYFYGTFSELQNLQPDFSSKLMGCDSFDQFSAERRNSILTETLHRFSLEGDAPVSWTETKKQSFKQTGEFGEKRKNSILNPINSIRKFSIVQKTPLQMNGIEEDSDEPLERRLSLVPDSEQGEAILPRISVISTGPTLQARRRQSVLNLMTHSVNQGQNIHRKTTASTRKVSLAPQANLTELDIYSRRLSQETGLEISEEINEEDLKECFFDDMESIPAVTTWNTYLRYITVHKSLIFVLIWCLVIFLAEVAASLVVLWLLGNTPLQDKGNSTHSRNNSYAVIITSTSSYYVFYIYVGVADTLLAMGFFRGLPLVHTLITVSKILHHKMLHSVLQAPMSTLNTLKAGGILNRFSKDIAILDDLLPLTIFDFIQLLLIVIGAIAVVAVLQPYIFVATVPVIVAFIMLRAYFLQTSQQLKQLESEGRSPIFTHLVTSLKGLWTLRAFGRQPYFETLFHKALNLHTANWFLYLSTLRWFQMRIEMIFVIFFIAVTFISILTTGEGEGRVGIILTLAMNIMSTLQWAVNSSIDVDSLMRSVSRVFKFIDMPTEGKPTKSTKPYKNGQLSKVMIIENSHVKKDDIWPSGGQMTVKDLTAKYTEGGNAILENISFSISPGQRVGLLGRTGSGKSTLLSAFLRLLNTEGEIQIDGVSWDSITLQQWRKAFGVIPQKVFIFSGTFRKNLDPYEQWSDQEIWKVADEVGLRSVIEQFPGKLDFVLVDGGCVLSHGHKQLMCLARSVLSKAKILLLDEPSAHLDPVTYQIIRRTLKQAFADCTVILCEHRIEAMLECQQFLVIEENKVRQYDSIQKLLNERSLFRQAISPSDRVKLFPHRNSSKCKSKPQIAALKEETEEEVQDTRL

Row | Structure (SMILES) | EC50 [µM] | % Activity
1 | CC(CO)(CO)c1ccc(NC(=O)c2c[nH]c3ccccc3c2=O)cc1 [Compound 590, N-[4-[2-hydroxy-1-(hydroxymethyl)-1-methyl-ethyl]phenyl]-4-oxo-1H-quinoline-3-carboxamide] | < 10 | + (<25%)
2 | CCc1cc2cc[nH]c2cc1NC(=O)c1c[nH]c2cccc(O)c2c1=O [Compound 591, N-(5-ethyl-1H-indol-6-yl)-5-hydroxy-4-oxo-1H-quinoline-3-carboxamide] | < 10 | ++ (between 25% to 100%)
3 | Cc1cccc2[nH]cc(C(=O)Nc3ccc(N4[C@H](C)CC[C@@H]4C)cc3C(F)(F)F)c(=O)c12 [Compound 592, N-(4-((2R,5S)-2,5-dimethylpyrrolidin-1-yl)-2-(trifluoromethyl)phenyl)-5-methyl-4-oxo-1,4-dihydroquinoline-3-carboxamide] | < 10 | ++ (between 25% to 100%)
4 | O=C(Nc1cc(N2CCCC2)cc(C(F)(F)F)c1)c1c[nH]c2ccccc2c1=O [Compound 593, 4-oxo-N-[3-pyrrolidin-1-yl-5-(trifluoromethyl)phenyl]-1H-quinoline-3-carboxamide] | < 10 | ++ (between 25% to 100%)
5 | CC(C)(C)c1ccc(NC(=O)c2c[nH]c3ccccc3c2=O)c(C(C)(C)C)c1O [Compound 594, N-(3-hydroxy-2,4-ditert-butyl-phenyl)-4-oxo-1H-quinoline-3-carboxamide] | < 10 | +++ (>100%)
6 | Cc1cccc2[nH]cc(C(=O)Nc3ccc(OC4CCCC4)cc3C(F)(F)F)c(=O)c12 [Compound 595, N-[4-cyclopentoxy-2-(trifluoromethyl)phenyl]-5-methyl-4-oxo-1H-quinoline-3-carboxamide] | < 10 | ++ (between 25% to 100%)
7 | O=C(Nc1cc2[nH]ccc2cc1F)c1c[nH]c2cccc(O)c2c1=O [Compound 596, N-(5-fluoro-1H-indol-6-yl)-5-hydroxy-4-oxo-1H-quinoline-3-carboxamide] | < 10 | ++ (between 25% to 100%)
8 | CC(C)c1ccc(NC(=O)c2c[nH]c3ccc(F)cc3c2=O)cc1O [Compound 597, 6-fluoro-N-(3-hydroxy-4-isopropyl-phenyl)-4-oxo-1H-quinoline-3-carboxamide] | – | ++ (between 25% to 100%)
9 | O=C(Nc1ccc(N2CCOCC2)cc1C(F)(F)F)c1c[nH]c2ccccc2c1=O [Compound 598, N-[4-morpholino-2-(trifluoromethyl)phenyl]-4-oxo-1H-quinoline-3-carboxamide] | < 10 | +++ (>100%)
10 | O=C(Nc1cc(O)cc(C(F)(F)F)c1)c1c[nH]c2cccc(O)c2c1=O [Compound 599, 5-hydroxy-N-[3-hydroxy-5-(trifluoromethyl)phenyl]-4-oxo-1H-quinoline-3-carboxamide] | < 10 | ++ (between 25% to 100%)
11 | CC(C)(C)OC(=O)Nc1ccc(NC(=O)c2c[nH]c3ccccc3c2=O)c(C(F)(F)F)c1 [Compound 600, tert-butyl [[4-[(4-oxo-1H-quinolin-3-yl)carbonylamino]-3-(trifluoromethyl)phenyl]amino]formate] | < 10 | ++ (between 25% to 100%)
12 | COc1ccc2[nH]cc(C(=O)Nc3ccc(N4CCC[C@@H]4C)cc3C(F)(F)F)c(=O)c2c1 [Compound 601, (S)-6-methoxy-N-(4-(2-methylpyrrolidin-1-yl)-2-(trifluoromethyl)phenyl)-4-oxo-1,4-dihydroquinoline-3-carboxamide] | < 10 | ++ (between 25% to 100%)
13 | CC(C)(C)c1cccc(NC(=O)c2c[nH]c3ccccc3c2=O)c1 [Compound 602, 4-oxo-N-(3-tert-butylphenyl)-1H-quinoline-3-carboxamide] | < 10 | ++ (between 25% to 100%)
14 | CC(=O)c1ccc2c(=O)c(C(=O)Nc3cc(O)c(C(C)(C)C)cc3C(C)(C)C)c[nH]c2c1 [Compound 604, 7-acetyl-N-(5-hydroxy-2,4-ditert-butyl-phenyl)-4-oxo-1H-quinoline-3-carboxamide] | < 10 | ++ (between 25% to 100%)
15 | CCc1cccc2c(=O)c(C(=O)Nc3cc(O)c(C(C)(C)C)cc3F)c[nH]c12 [Compound 605, 8-ethyl-N-(2-fluoro-5-hydroxy-4-tert-butyl-phenyl)-4-oxo-1H-quinoline-3-carboxamide] | 10 to 25 | + (<25%)
16 | CC1(c2ccc(NC(=O)c3c[nH]c4cccc(O)c4c3=O)cc2O)CCCCC1 [Compound 606, 5-hydroxy-N-[3-hydroxy-4-(1-methylcyclohexyl)-phenyl]-4-oxo-1H-quinoline-3-carboxamide] | < 10 | + (<25%)
17 | Cc1ccc2c(=O)c(C(=O)Nc3ccc(N4CCC[C@@H]4C)cc3C(F)(F)F)c[nH]c2c1 [Compound 607, (S)-7-methyl-N-(4-(2-methylpyrrolidin-1-yl)-2-(trifluoromethyl)phenyl)-4-oxo-1,4-dihydroquinoline-3-carboxamide] | < 10 | ++ (between 25% to 100%)
18 | O=C(Nc1cc(O)c(Cl)cc1Cl)c1c[nH]c2ccccc2c1=O [Compound 608, N-(2,4-dichloro-5-hydroxy-phenyl)-4-oxo-1H-quinoline-3-carboxamide] | < 10 | ++ (between 25% to 100%)
19 | CC(C)(C)c1ccc(O)cc1NC(=O)c1c[nH]c2cccc(O)c2c1=O [Compound 609, 5-hydroxy-N-(5-hydroxy-2-tert-butyl-phenyl)-4-oxo-1H-quinoline-3-carboxamide] | < 10 | ++ (between 25% to 100%)
20 | CC(C)(C)c1cc(F)c(NC(=O)c2c[nH]c3cccc(F)c3c2=O)cc1O [Compound 610, 5-fluoro-N-(2-fluoro-5-hydroxy-4-tert-butyl-phenyl)-4-oxo-1H-quinoline-3-carboxamide] | < 10 | ++ (between 25% to 100%)
21 | COc1cc2c(=O)c(C(=O)Nc3cc4[nH]ccc4cc3C(C)(C)C)c[nH]c2cc1F [Compound 611, 7-fluoro-6-methoxy-4-oxo-N-(5-tert-butyl-1H-indol-6-yl)-1H-quinoline-3-carboxamide] | < 10 | +++ (>100%)
22 | CC1(C)CCCN(c2ccc(NC(=O)c3c[nH]c4ccccc4c3=O)c(C(F)(F)F)c2)C1 [Compound 612, N-[4-(3,3-dimethyl-1-piperidyl)-2-(trifluoromethyl)phenyl]-4-oxo-1H-quinoline-3-carboxamide] | < 10 | ++ (between 25% to 100%)
23 | Cc1cccc2[nH]cc(C(=O)Nc3ccc(N4CC[C@@H](C)C4)cc3C(F)(F)F)c(=O)c12 [Compound 613, (R)-5-methyl-N-(4-(3-methylpyrrolidin-1-yl)-2-(trifluoromethyl)phenyl)-4-oxo-1,4-dihydroquinoline-3-carboxamide] | < 10 | ++ (between 25% to 100%)
24 | O=C(Nc1ccc(Oc2cccnc2)cc1)c1c[nH]c2ccccc2c1=O [Compound 614, 4-oxo-N-[4-(3-pyridyloxy)phenyl]-1H-quinoline-3-carboxamide] | < 10 | ++ (between 25% to 100%)
25 | Cc1cc(N2CCCC2)ccc1NC(=O)c1c[nH]c2ccccc2c1=O [Compound 615, N-(2-methyl-4-pyrrolidin-1-yl-phenyl)-4-oxo-1H-quinoline-3-carboxamide] | < 10 | +++ (>100%)

From patent publication US8614327B2 (Vertex Pharmaceuticals Incorporated, priority 2004, dated 2013)
